# According to patent publication US20190031665A1, “DERIVATIVES OF PYRROLOIMIDAZOLE OR ANALOGUES THEREOF WHICH ARE USEFUL FOR THE TREATMENT OF INTER ALIA CANCER” (EMCURE PHARMACEUTICALS LIMITED, priority 2016, published 2019):
# Experiments:
# [1] = molecular target: T1, human indoleamine 2,3-dioxygenase 1 (hIDO1) (Homo sapiens, UniProt P14902); assay: In-vitro human indoleamine 2,3-dioxygenase 1 (IDO1) enzyme assay; assay type: biochemical; conditions: for inhibition at 1 µM: hIDO1 enzyme at 1.0 μM concentration; for inhibition at 10 µM: hIDO1 enzyme at 10.0 μM concentration; for IC50: hIDO1 enzyme
# T1 construct: His tag (N); purchased BPS Bioscience, San Diego, Calif., USA; host or cells: E. coli
# Method in brief: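 His-tagged hIDO1 (E. coli, 50 ng) incubated with 80 μM tryptophan, 10 mM ascorbate, 10 μM methylene blue, catalase and 0.01% Tween-20 in 50 mM sodium phosphate pH 6.5, 60 min, 37 °C. Piperidine converts N-formylkynurenine to fluorescent NFK-PIP (ex 400/em 500 nm); IC50 by nonlinear regression.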
# [2] = molecular target: T2, human tryptophan 2,3-dioxygenase (hTDO) (Homo sapiens, UniProt P48775); assay: In-vitro human tryptophan 2,3-dioxygenase (TDO) enzyme assay; assay type: biochemical; conditions: for inhibition at 1 µM: hTDO enzyme at 1.0 μM concentration; for inhibition at 10 µM: hTDO enzyme at 10.0 μM concentration
# T2 construct: His tag (N); purchased BPS Bioscience, San Diego, Calif., USA; host or cells: E. coli
# Method in brief: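 N-His-tagged hTDO expressed in E. coli (125 ng) incubated with 200 μM L-tryptophan, 100 mM sodium phosphate pH 7.0, 0.01% Tween-20, 100 μM ascorbate, 60 min at 37 °C. Product converted with 200 mM piperidine (65 °C, 20 min) to NFK-PIP, fluorescence 400/500 nm; IC50 by nonlinear regression.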
# T1 sequence (P14902 whole entry): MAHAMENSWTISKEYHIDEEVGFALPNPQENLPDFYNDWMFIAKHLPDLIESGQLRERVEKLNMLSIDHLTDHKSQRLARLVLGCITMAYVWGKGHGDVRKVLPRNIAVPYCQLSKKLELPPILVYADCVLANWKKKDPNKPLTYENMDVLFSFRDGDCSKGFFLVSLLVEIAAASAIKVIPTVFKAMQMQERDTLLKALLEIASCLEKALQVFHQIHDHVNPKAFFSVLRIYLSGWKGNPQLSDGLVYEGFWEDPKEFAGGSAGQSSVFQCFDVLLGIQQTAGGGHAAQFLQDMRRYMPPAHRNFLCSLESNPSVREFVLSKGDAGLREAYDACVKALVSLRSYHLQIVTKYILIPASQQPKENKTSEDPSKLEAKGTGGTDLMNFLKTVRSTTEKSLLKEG
# T2 sequence (P48775 whole entry): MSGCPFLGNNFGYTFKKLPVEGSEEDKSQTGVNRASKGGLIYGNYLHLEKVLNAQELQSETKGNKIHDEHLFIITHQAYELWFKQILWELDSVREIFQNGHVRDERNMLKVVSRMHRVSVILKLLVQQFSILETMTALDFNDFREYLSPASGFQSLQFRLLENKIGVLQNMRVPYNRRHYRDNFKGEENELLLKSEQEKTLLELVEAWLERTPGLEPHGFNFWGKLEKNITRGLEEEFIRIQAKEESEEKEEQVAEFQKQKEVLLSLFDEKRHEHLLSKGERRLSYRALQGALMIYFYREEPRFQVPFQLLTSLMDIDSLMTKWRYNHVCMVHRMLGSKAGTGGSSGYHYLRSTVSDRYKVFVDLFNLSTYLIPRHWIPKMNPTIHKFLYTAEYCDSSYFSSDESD
Structure (SMILES),inhibition at 1 µM [1] [%],inhibition at 10 µM [1] [%],inhibition at 1 µM [2] [%],IC50 [1] [nM],inhibition at 10 µM [2] [%]
"CC1=C(c2ccc(C)cc2)C(CC(O)C2CCCCC2)n2cncc21 (stereo not drawn) [Example 87, 1-Cyclohexyl-2-(7-methyl-6-(p-tolyl)-5H-pyrrolo[1,2-c]imidazol-5-yl)ethan-1-ol]",≤ 50,≥ 50,≥ 50,–,–
"CC1=C(c2ccccc2)C(CC(=O)C2CCCCC2)n2cncc21 (stereo not drawn) [Example 88, 1-Cyclohexyl-2-(7-methyl-6-phenyl-5H-pyrrolo[1,2-c]imidazol-5-yl)-ethanone]",–,≥ 50,≥ 50,> 500,≥ 50
"CC1=C(c2ccccc2)C(CC(O)C2CCCCC2)n2cncc21 (stereo not drawn) [Example 89, 1-Cyclohexyl-2-(7-methyl-6-phenyl-5H-pyrrolo[1,2-c]imidazol-5-yl)-ethane-1-ol]",≥ 50,≥ 50,≥ 50,< 500,≥ 50
CC1=C(c2cccc(Cl)c2)C(CC(=O)C2CCCCC2)n2cncc21 (stereo not drawn) [Example 95],≤ 50,≥ 50,≤ 50,–,–
CC1=C(c2cccc(Cl)c2)C(CC(O)C2CCCCC2)n2cncc21 (stereo not drawn) [Example 96],≤ 50,≥ 50,≤ 50,–,–
CC1=C(c2ccccc2)C(CC(=O)C2CCC(O)CC2)n2cncc21 (stereo not drawn) [Example 99],≤ 50,≥ 50,≥ 50,–,–
CC1=C(c2ccccc2)C(CC(=O)C2CCOCC2)n2cncc21 (stereo not drawn) [Example 100],≤ 50,≥ 50,≥ 50,–,–
CC1=C(c2ccccc2F)C(CC(=O)C2CCCCC2)n2cncc21 (stereo not drawn) [Example 101],≤ 50,≥ 50,≥ 50,–,–
O=C(CC1C(c2ccccc2)=C(c2ccccc2)c2cncn21)C1CCCCC1 (stereo not drawn) [Example 102],≤ 50,≤ 50,≤ 50,–,–
OC(CC1C(c2ccccc2)=C(c2ccccc2)c2cncn21)C1CCCCC1 (stereo not drawn) [Example 103],≤ 50,≤ 50,≤ 50,–,–
COc1ccc(C2=C(C)c3cncn3C2CC(=O)C2CCCCC2)cc1 (stereo not drawn) [Example 104],≤ 50,≤ 50,≤ 50,–,–
CC1=C(c2ccccc2C)C(CC(O)C2CCCCC2)n2cncc21 (stereo not drawn) [Example 105],≤ 50,≥ 50,≤ 50,–,–
CC(C)C1=C(c2ccccc2)C(CC(=O)C2CCCCC2)n2cncc21 (stereo not drawn) [Example 106],≤ 50,≤ 50,≤ 50,–,–
CC1=C(c2ccccc2)C(CC(=O)C23CC4CC(CC(C4)C2)C3)n2cncc21 (stereo not drawn) [Example 107],≤ 50,≥ 50,≥ 50,–,–
CC1=C(c2ccccc2)C(CC(O)C23CC4CC(CC(C4)C2)C3)n2cncc21 (stereo not drawn) [Example 108],≥ 50,≥ 50,≥ 50,–,–
"CC1=C(c2ccccc2)C(CC(=O)C2CCC(C(=O)Nc3ccccc3)CC2)n2cncc21 (stereo not drawn) [Example 109, 4-(2-(7-methyl-6-phenyl-5H-pyrrolo[1,2-c]imidazol-5-yl)acetyl)-N-phenylcyclohexane-1-carboxamide]",≤ 50,≥ 50,≥ 50,–,–
CC1=C(c2ccccc2)C(CC(=O)C2CCC(C(=O)Nc3ccc(F)cc3F)CC2)n2cncc21 (stereo not drawn) [Example 110],≤ 50,≥ 50,≥ 50,–,–
CC1=C(c2ccccc2)C(C[C@H](O)C2CCC(C(=O)Nc3ccccc3)CC2)n2cncc21 (stereo partly drawn) [Example 112],≥ 50,≥ 50,≥ 50,< 500,–
CC1=C(c2ccccc2)C(CC(=O)C2CCCN2S(=O)(=O)c2ccc(C)cc2)n2cncc21 (stereo not drawn) [Example 113],≤ 50,≥ 50,≥ 50,–,–
CC1=C(c2ccccc2)C(C[C@@H](O)C2CCCN2S(=O)(=O)c2ccc(C)cc2)n2cncc21 (stereo partly drawn) [Example 114],≤ 50,≥ 50,≥ 50,–,–
CC1=C(c2ccccc2)C(CC(=O)C2CCCN2C(=O)c2ccccc2)n2cncc21 (stereo not drawn) [Example 115],≤ 50,≤ 50,≤ 50,–,–

Structure (SMILES),inhibition at 1 µM [1] [%],inhibition at 10 µM [1] [%],inhibition at 1 µM [2] [%],IC50 [1] [nM],inhibition at 10 µM [2] [%]
CC1=C(c2ccccc2)C(C[C@@H](O)C2CCCN2C(=O)c2ccccc2)n2cncc21 (stereo partly drawn) [Example 116],≤ 50,≤ 50,≤ 50,–,–
CC1=C(c2ccccc2)C(CC(=O)C2CCC(C(=O)Nc3ccncc3)CC2)n2cncc21 (stereo not drawn) [Example 117],≥ 50,≥ 50,≥ 50,> 500,–
CC1=C(c2ccccc2)C(CC(=O)C2CCC(C(=O)Nc3ccc(Cl)cc3C)CC2)n2cncc21 (stereo not drawn) [Example 118],≥ 50,≥ 50,≥ 50,–,–
CC1=C(c2ccccc2)C(C[C@H](O)C2CCC(C(=O)Nc3ccncc3)CC2)n2cncc21 (stereo partly drawn) [Example 119],≥ 50,≥ 50,≥ 50,< 500,–
CC1=C(c2ccccc2)C(C[C@H](O)C2CCC(C(=O)Nc3ccc(Cl)cc3C)CC2)n2cncc21 (stereo partly drawn) [Example 120],≥ 50,≥ 50,≥ 50,< 500,–
CC1=C(c2ccccc2)C(CC(=O)C2CCC(C(=O)NC3CCCCC3)CC2)n2cncc21 (stereo not drawn) [Example 123],≤ 50,≥ 50,≥ 50,–,–
CC1=C(c2ccccc2)C(CC(=O)C2CCC(C(=O)N3CCC(=O)CC3)CC2)n2cncc21 (stereo not drawn) [Example 124],≤ 50,≥ 50,≤ 50,–,–
CC1=C(c2ccccc2)C(C[C@H](O)C2CCC(C(=O)N3CCC(O)CC3)CC2)n2cncc21 (stereo partly drawn) [Example 125],≥ 50,≥ 50,≤ 50,–,–
CC1=C(c2ccccc2)C(C[C@H](O)C2CCC(C(=O)NC3CCCCC3)CC2)n2cncc21 (stereo partly drawn) [Example 126],≥ 50,≥ 50,≥ 50,< 500,–
CC1=C(c2ccccc2)C(CC(O)C2CCC(O)CC2)n2cncc21 (stereo not drawn) [Example 127],≥ 50,–,≥ 50,–,–
CC1=C(c2ccccc2)C(C[C@H](O)C2CCC(C(=O)Nc3cccnc3)CC2)n2cncc21 (stereo partly drawn) [Example 128],≥ 50,≥ 50,≥ 50,< 500,–
CC1=C(c2ccccc2)C(CC(O)[C@H]2CC[C@H](C(=O)N[C@H]3CC[C@H](O)CC3)CC2)n2cncc21 (stereo partly drawn) [Example 129],≥ 50,≥ 50,≥ 50,> 500,–
CC1=C(c2ccccc2)C(CC(=O)C2CCC(C(=O)O)CC2)n2cncc21 (stereo not drawn) [Example 130],≤ 50,≤ 50,≤ 50,–,–
COC(=O)[C@H]1CC[C@@H]([C@@H](O)CC2C(c3ccccc3)=C(C)c3cncn32)CC1 (stereo partly drawn) [Example 131],≥ 50,≥ 50,≥ 50,< 500,–
CC1=C(c2ccccc2)C(C[C@H](O)C2CCC(C(=O)O)CC2)n2cncc21 (stereo partly drawn) [Example 133],≤ 50,≥ 50,≥ 50,–,–
CNC(=O)C1CCC(C(=O)CC2C(c3ccccc3)=C(C)c3cncn32)CC1 (stereo not drawn) [Example 135],≤ 50,≤ 50,≥ 50,–,–
CC1=C(c2ccccc2)C(CC(=O)C2CCC(c3ccccc3)CC2)n2cncc21 (stereo not drawn) [Example 136],≥ 50,≥ 50,≥ 50,–,–
"CC1=C(c2ccccc2)C(CC(O)C2CCN(C(=O)OCc3ccccc3)CC2)n2cncc21 (stereo not drawn) [Example 137, 4-[1-Hydroxy-2-(7-methyl-6-phenyl-5H-pyrrolo[1,2-c]imidazol-5-yl)-ethyl]-piperidine-1-carboxylic acid benzyl ester]",≥ 50,≥ 50,≥ 50,< 500,–
"CC1=C(c2ccccc2)C(CC(=O)C2CCN(C(=O)Cc3ccccc3F)CC2)n2cncc21 (stereo not drawn) [Example 138, 2-(2-Fluorophenyl)-1-(4-(2-(7-methyl-6-phenyl-5H-pyrrolo[1,2-c]imidazol-5-yl)acetyl)piperidin-1-yl)ethan-1-one]",≥ 50,≥ 50,≥ 50,–,–
"CC1=C(c2ccccc2)C(CC(O)C2CCN(C(=O)Cc3ccccc3F)CC2)n2cncc21 (stereo not drawn) [Example 139, 2-(2-Fluorophenyl)-1-(4-(1-hydroxy-2-(7-methyl-6-phenyl-5H-pyrrolo[1,2-c]imidazol-5-yl)ethyl)piperidin-1-yl)ethan-1-one]",≥ 50,≥ 50,≥ 50,< 500,–
CC1=C(c2ccccc2)C(CC(=O)C2CCN(Cc3ccccc3)CC2)n2cncc21 (stereo not drawn) [Example 140],≤ 50,≤ 50,≤ 50,–,–
